Laboratory results published in patent US11548890B1, “HPK1 antagonists and uses thereof” (Nimbus Saturn, Inc., priority 2019, dated 2023).

Each compound was assayed against HPK1 (Homo sapiens (Human), UniProt Q92918) (assay: HPK1 biochemical enzyme assay (microfluidic mobility shift assay)). Settings: ATP 1 mM final concentration; 1.5 nM HPK1; 30 min preincubation; Caliper EZ Reader; read-out: HPK1 1000UMATP caliper IC50.
Protocol: HPK1 biochemical enzyme assay: HPK1 enzyme inhibition was measured using a microfluidic mobility shift assay. […] Test compounds were titrated in ten point curves (top final assay concentration 3 μM), and preincubated with enzyme/substrate mix for 30 min prior to initiation of the reaction by addition of ATP (1 mM final concentration) and substrate (1 μM final concentration; Carna Biosciences) diluted in assay buffer supplemented by MgCl2 (final assay concentration of 5 mM). Following 60 min incubation at RT, the reaction was terminated by addition of 60 μl/well termination buffer (Carna Biosciences) and signal determination using a Caliper EZ Reader (Perkin Elmer, UK).
The compound numbers correspond to the compound numbers in Table 1.

Chain of HPK1 (Q92918 whole entry): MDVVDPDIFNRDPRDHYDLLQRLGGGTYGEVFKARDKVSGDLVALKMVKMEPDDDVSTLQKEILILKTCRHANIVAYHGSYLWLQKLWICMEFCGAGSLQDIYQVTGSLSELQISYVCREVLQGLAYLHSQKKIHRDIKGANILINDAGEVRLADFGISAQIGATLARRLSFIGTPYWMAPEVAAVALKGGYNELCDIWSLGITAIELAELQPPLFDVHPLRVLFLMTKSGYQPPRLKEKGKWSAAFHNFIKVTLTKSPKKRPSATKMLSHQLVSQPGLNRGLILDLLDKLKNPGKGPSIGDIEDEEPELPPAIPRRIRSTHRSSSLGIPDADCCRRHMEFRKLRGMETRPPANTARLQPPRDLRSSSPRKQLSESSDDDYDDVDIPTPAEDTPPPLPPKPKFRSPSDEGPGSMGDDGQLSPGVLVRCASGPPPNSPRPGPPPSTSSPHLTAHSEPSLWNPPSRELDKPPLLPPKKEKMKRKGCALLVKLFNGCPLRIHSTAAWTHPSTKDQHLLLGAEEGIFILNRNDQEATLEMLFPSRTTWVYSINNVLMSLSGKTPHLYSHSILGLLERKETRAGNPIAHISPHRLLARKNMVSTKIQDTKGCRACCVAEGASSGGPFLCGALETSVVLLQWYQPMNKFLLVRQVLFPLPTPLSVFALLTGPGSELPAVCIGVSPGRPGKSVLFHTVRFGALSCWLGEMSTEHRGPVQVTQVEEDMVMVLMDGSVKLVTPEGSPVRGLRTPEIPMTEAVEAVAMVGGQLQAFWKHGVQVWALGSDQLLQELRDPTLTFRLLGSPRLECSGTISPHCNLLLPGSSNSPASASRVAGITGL

| Compound | IC50 |
| --- | --- |
| 7-((6-((dimethylamino)methyl)-4-(tetrahydrofuran-2-yl)pyridin-2-yl)amino)-4-(7-fluoroimidazo[1,2-a]pyridin-3-yl)isoindolin-1-one [I-852] | < 100 nM |
| CC(C)(N)[C@H]1CN(c2ccc(Nc3ccc(-c4cnc5cc(F)ccn45)c4c3C(=O)NC4)nc2)CCO1 (single isomer, unassigned) [I-671] | < 100 nM |
| Cn1ccc2c(-c3ncc(Nc4ccc(N5CCC(O)CC5)cn4)c4c3CNC4=O)ccnc21 [I-139, 7-[[5-(4-hydroxy-1-piperidyl)-2-pyridyl]amino]-4-(1-methylpyrrolo [2,3-b]pyridin-4-yl)-2,3-dihydropy-rrolo[3,4-c]pyridin-1-one] | < 100 nM |
| Cc1ccn2c(-c3ccc(Nc4ccc(N5CCOCC5)cn4)c4c3CNC4=O)cnc2c1 [I-145, 4-(7-methylimidazo [1,2-a]pyridin-3-yl)-7-[(5-morpholino-2-pyridyl)amino] isoindolin-1-one] | < 100 nM |
| Cn1ccc2c(-c3ncc(Nc4ccc(N5CCOCC5)cn4)c4c3CNC4=O)cccc21 [I-221, 4-(1-methylindol-4-yl)-7-[(5-morpholino-2-pyridyl)amino]-2,3-dihydropy-rrolo[3,4-c]pyridin-1-one] | < 100 nM |
| O=C1NCc2c(-c3cnc4cc(F)ccn34)ccc(Nc3ccc(N4CCO[C@@H](CNC5CC5)C4)cn3)c21 [I-495, 7-[[5-[(2S)-2-[(cyclopropyl-amino)methyl]morpholin-4-yl]-2-pyridyl]amino]-4-(7-fluoroimidazo [1,2-a]pyridin-3-yl)isoindolin-1-one] | < 100 nM |
| C[C@H](c1ccc(Nc2ccc(-c3cnc4cc(F)ccn34)c3c2C(=O)NC3)nc1)N(C)C [I-521, (R)-7-((5-(1-(dimethylamino)-ethyl)pyridin-2-yl)amino)-4-(7-fluoroimidazo [1,2-a]pyridin-3-yl)isoindolin-1-one] | < 100 nM |
| CO[C@H]1CC[C@H](c2ccc(Nc3ccc(-c4cnc5cc(F)ccn45)c4c3C(=O)NC4)nc2CN(C)C)C1 [I-793, 7-((6-((dimethylamino)-methyl)-5-((1S,3S)-3-methoxycyclo-pentyl)pyridin-2-yl)amino)-4-(7-fluoroimidazo [1,2-a]pyridin-3-yl)isoindolin-1-one] | < 100 nM |
| CN(C)Cc1nc(Nc2ccc(-c3cnc4cc(F)ccn34)c3c2C(=O)NC3)ccc1OCC(F)F [I-835, 7-((5-(2,2-difluoroethoxy)-6-((dimethylamino)methyl)pyridin-2-yl)amino)-4-(7-fluoroimidazo[1,2-a]pyridin-3-yl)isoindolin-1-one] | < 100 nM |
| (R)-7-((5-(2- (methoxymeth- yl)morpholino) pyridin-2- yl)amino)-4- (7- methylimidazo [1,2- a]pyrimidin-3- yl)isoindolin- 1-one [I-628] | < 100 nM |
